Counter-ions that a name gives are not always drawn.

One may read the inhibition as the percentage by which the read-out fell short of the control. Low values mean a response near the control, high ones a response far below the control.

PDE4B, sequence (Q07343 whole entry, species assumed): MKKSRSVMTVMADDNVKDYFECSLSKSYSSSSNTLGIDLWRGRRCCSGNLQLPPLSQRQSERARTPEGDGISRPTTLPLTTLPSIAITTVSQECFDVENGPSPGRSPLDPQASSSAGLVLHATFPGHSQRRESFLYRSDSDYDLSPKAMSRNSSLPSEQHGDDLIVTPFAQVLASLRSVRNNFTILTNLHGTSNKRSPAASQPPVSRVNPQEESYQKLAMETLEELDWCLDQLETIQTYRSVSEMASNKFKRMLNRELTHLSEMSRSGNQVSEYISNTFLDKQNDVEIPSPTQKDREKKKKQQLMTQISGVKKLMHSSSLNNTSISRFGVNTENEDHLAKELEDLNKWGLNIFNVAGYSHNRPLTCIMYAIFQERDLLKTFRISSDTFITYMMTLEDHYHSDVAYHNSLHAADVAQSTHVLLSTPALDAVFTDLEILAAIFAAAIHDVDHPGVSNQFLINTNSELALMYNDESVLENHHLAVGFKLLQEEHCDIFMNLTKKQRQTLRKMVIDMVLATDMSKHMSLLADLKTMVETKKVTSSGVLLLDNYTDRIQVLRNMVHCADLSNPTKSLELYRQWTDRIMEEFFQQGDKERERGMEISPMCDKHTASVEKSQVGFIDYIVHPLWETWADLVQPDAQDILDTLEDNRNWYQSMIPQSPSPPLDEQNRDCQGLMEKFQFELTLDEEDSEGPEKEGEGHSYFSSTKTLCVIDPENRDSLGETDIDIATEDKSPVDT

The first assay concerns the target PDE4B (Homo sapiens, UniProt Q07343). The experiment in a line: Scintillation Proximity Assay (SPA) of PDE4B enzyme activity ([H3]-cAMP cleavage). The assay is classed as biochemical. The conditions noted are these: test substance 1 μM; one-hour incubation of [H3]-cAMP with PDE4B enzyme at 30° C. Here is the method:
The inhibitions (in %) at 1 μM of the individual Example substances are given in the following Table of Examples and were determined as follows:
The Scintillation Proximity Assay (SPA) (GE Healthcare, No. TRKQ7090) was carried out by using the different affinities of cyclic 3′-5′-adenosinemonophosphate (cAMP, low affinity) and linear 5′-adenosinemonophosphate (AMP, high affinity) for yttrium silicate scintillator beads. The cAMP specific phosphodiesterase (PDE) PDE4B cleaves the 3′-phosphoester bond of tritium-labelled [H3]-cAMP to form [H3]-5′-AMP. This [H3]-AMP accumulates on the scintillator beads because of its higher affinity for them and causes scintillation events (flashes of light) which are measured in a Wallac Microbeta Scintillation Counter.
The experiment starts with a one-hour incubation of [H3]-cAMP with the PDE4B enzyme in assay buffer at 30° C., in each case once with the Example substance to be tested (in a concentration of 1 μM) and once without the Example substance to be tested.
After this incubation, the reaction is stopped by the addition of the beads. The beads have an opportunity to settle in the next 45 minutes, then the measurement is carried out in the Scintillation Counter. If the substance is capable of inhibiting the enzymatic activity of the PDE4B, less [H3]-AMP is produced during the incubation phase and fewer scintillation events can be measured.
For orientation: Scintillation proximity formats need no separation of bound from free tracer.
The molecule `CC(C)c1noc(C2CCN(c3nc4c(c(N[C@@H](CO)C(C)C)n3)[S+]([O-])CC4)CC2)n1` (stereo partly drawn) [Example 160] had an inhibition at 1 µM of 86%.
`CN1C[C@@H](Nc2nc(N3CCC(c4ccc(Cl)cc4)CC3)nc3c2S(=O)(=O)CC3)CCC1=O` [Example 335, 5-{2-[4-(4-chlorophenyl)-piperidin-1-yl]-5.5-dioxo-6,7-dihydro-5H-5λ^6-thieno[3,2-d]pyrimidin-4-ylamino}-1-methylpiperidin-2-one] displayed an inhibition at 1 µM of 85%.
On the same count and under the same terms, under `[O-][S+]1CCc2nc(N3CCC(c4c[nH]cn4)CC3)nc(Nc3cccc(F)c3)c21` (stereo not drawn) [Example 72] stands 95%.
Turning to `N#CC1(c2ccccc2)CCN(c2nc3c(c(Nc4cccc(F)c4)n2)[S+]([O-])CC3)CC1` (stereo not drawn) [Example 85], the inhibition at 1 µM is 96%.
As to `CC(C)(O)[C@H](Nc1nc(N2CCC(c3ccc(Cl)cc3)CC2)nc2c1[S+]([O-])CC2)c1ccc(F)cc1` (stereo partly drawn) [Example 4, (R)-1-{2-[4-(4-chlorophenyl)-piperidin-1-yl]-5-oxo-6,7-dihydro-5H-5λ^4-thieno[3,2-d]pyrimidin-4-ylamino}-1-(4-fluorophenyl)-2-methylpropan-2-ol], the inhibition at 1 µM was found to be 91%.
The molecule `CN1C(=O)Nc2ccccc2C12CCN(c1nc3c(c(NC4(CO)CC4)n1)[S+]([O-])CC3)CC2` (stereo not drawn) [Example 28, 1-(4-(1-Hydroxymethylcyclopropylamino)-5-Oxo-6,7-Dihydro-5H-5λ^4-Thieno[3,2-d]Pyrimidin-2-Yl)-3′-Methyl-1′H-Spiro[Piperidin-4,4′-Quinazolin]-2′(3′H)-One] came in with an inhibition at 1 µM of 85%.
Molecule `N#Cc1ccc(C2CCN(c3nc4c(c(NC5CCOCC5)n3)[S+]([O-])CC4)CC2)cc1` (stereo not drawn) [Example 64] displayed an inhibition at 1 µM of 96%.
For the molecule `N#Cc1ccc(C2CCN(c3nc4c(c(NC5(CO)CC5)n3)[S+]([O-])CC4)CC2)cc1` (stereo not drawn) [Example 35], testing at 1 µM gave an inhibition of 95%.
`N#CC1(c2ccccc2)CCN(c2nc3c(c(NC4(CO)CC4)n2)[S+]([O-])CC3)CC1` (stereo not drawn) [Example 40] returned an inhibition at 1 µM of 94%.
Still for that read-out and setting: under `CCc1[nH]c2ccc(F)cc2c1C1CCN(c2nc3c(c(NC4(CO)CC4)n2)[S+]([O-])CC3)CC1` (stereo not drawn) [Example 37, (1-{2-[4-(2-Ethyl-5-Fluoro-1H-Indol-3-Yl)-Piperidin-1-Yl]-5-Oxo-6,7-Dihydro-5H-5λ^4-Thieno[3,2-d]Pyrimidin-4-Ylamino}-Cyclopropyl)-Methanol] stands 92%; under `CC(C)[C@H](CO)Nc1nc(N2CCC(c3nc(-c4ccncc4)no3)CC2)nc2c1[S+]([O-])CC2` (stereo partly drawn) [Example 163, (R)-3-Methyl-2-{5-Oxo-2-[4-(3-Pyridin-4-Yl-[1,2,4]Oxadiazol-5-Yl)-Piperidin-1-Yl]-6,7-Dihydro-5H-5λ^4-Thieno[3,2-d]Pyrimidin-4-Ylamino}-Butan-1-Ol Trifluoroacetate], 92%.
With `CC(C)[C@H](CO)Nc1nc(N2CCC(c3c[nH]cn3)CC2)nc2c1[S+]([O-])CC2` (stereo partly drawn) [Example 13], the inhibition at 1 µM was found to be 71%.
The same measure, in the same setting: under `Cc1noc(C2CCN(c3nc4c(c(NC5(CO)CC5)n3)[S+]([O-])CC4)CC2)n1` (stereo not drawn) [Example 38] stands 92%; under `[O-][S+]1CCc2nc(N3CCC(c4nc(-c5cccnc5)no4)CC3)nc(Nc3cccc(F)c3)c21` (stereo not drawn) [Example 146], 96%; under `[O-][S+]1CCc2nc(N3CCC(c4cc(-c5ccco5)n[nH]4)CC3)nc(NC3CCOCC3)c21` (stereo not drawn) [Example 130], 96%.
The same measure, in the same setting: under `[O-][S+]1CCc2nc(N3CCC(c4cccc(O)c4)CC3)nc(NC3CCOCC3)c21` (stereo not drawn) [Example 61] stands 95%; under `[O-][S+]1CCc2nc(N3CCC(c4ccccc4F)CC3)nc(NC3CCOCC3)c21` (stereo not drawn) [Example 88], 92%; under `COC(=O)c1cccc(C2CCN(c3nc4c(c(NC5(CO)CC5)n3)[S+]([O-])CC4)CC2)c1` (stereo not drawn) [Example 104], 95%.
The same measure, in the same setting: under `[O-][S+]1CCc2nc(N3CCC(O)(c4cc(F)cc(F)c4)CC3)nc(NC3(CO)CC3)c21` (stereo not drawn) [Example 33] stands 95%.
As to `CC(C)[C@H](CO)Nc1nc(N2CCC3(CC2)OC(=O)Nc2ccccc23)nc2c1[S+]([O-])CC2` (stereo partly drawn) [Example 21], the inhibition at 1 µM was 83%.
The same measure, in the same setting: under `CC(C)[C@H](CO)Nc1nc(N2CCC3(CC2)c2ccccc2NC(=O)N3C)nc2c1[S+]([O-])CC2` (stereo partly drawn) [Example 14, (R)-1-(4-(1-Hydroxy-3-Methylbutan-2-Ylamino)-5-Oxo-6,7-Dihydro-5H-5λ^4-Thieno[3,2-d]Pyrimidin-2-Yl)-3′-Methyl-1′H-Spiro[Piperidin-4,4′-Quinazolin]-2′(3′H)-One] stands 60%.
Still for that read-out and setting: the result for `CC(C)[C@H](CO)Nc1nc(N2CCC(c3ccc4ccccc4c3)CC2)nc2c1[S+]([O-])CC2` (stereo partly drawn) [Example 158] reads 94%.

Still in this assay, the particulars now being: test substance 1 μM; one-hour incubation with [H3]-cAMP at 30° C.
As for `Cc1oc(C2CCN(c3nc4c(c(NC5CCOCC5)n3)[S+]([O-])CC4)CC2)nc1-c1ccccc1` (stereo not drawn) [Example 276], the inhibition at 1 µM was 95%.
Same read-out and setting: the result for `CN(C(=O)c1cccc(C2CCN(c3nc4c(c(NC5CCOCC5)n3)[S+]([O-])CC4)CC2)c1)C1CCOCC1` (stereo not drawn) [Example 256] reads 91%; that for `Cc1nn(C)cc1CNC(=O)c1ccc(C2CCN(c3nc4c(c(NC5CCOCC5)n3)[S+]([O-])CC4)CC2)cc1` (stereo not drawn) [Example 262], 94%; that for `CN1C[C@@H](Nc2nc(N3CCC(c4n[nH]c5ccccc45)CC3)nc3c2[S+]([O-])CC3)CCC1=O` (stereo partly drawn) [Example 219], 82%.
On the same count and under the same terms, under `N#CC1(c2ccc(F)cc2)CCN(c2nc3c(c(NC4CCOCC4)n2)[S+]([O-])CC3)CC1` (stereo not drawn) [Example 293] stands 86%; under `[O-][S+]1CCc2nc(N3CCC(Oc4ccc(F)cc4)CC3)nc(NC3CCOCC3)c21` (stereo not drawn) [Example 166], 92%.
`[O-][S+]1CCc2nc(N3CCC(O)(c4ccc(Cl)cc4)CC3)nc(Nc3cccc(F)c3)c21` (stereo not drawn) [Example 290] yielded an inhibition at 1 µM of 86%.
The molecule `NC1CC1Nc1nc(N2CCC(c3ccc(Cl)cc3)CC2)nc2c1[S+]([O-])CC2` (stereo not drawn) [Example 233, N-{2-[4-(4-Chlorophenyl)-Piperidin-1-Yl]-5-Oxo-6,7-Dihydro-5H-5λ^4-Thieno[3,2-d]Pyrimidin-4-Yl}-Cyclopropan-1,2-Diamine] showed an inhibition at 1 µM of 93%.
The molecule `COCC(=O)NCC1(c2ccccc2)CCN(c2nc3c(c(N[C@H]4CCC(=O)N(C)C4)n2)[S+]([O-])CC3)CC1` (stereo partly drawn) [Example 202, 2-methoxy-N-{1-[4-(1-methyl-6-oxopiperidin-3-ylamino)-5-oxo-6,7-dihydro-5H-5λ^4-thieno[3,2-d]pyrimidin-2-yl]-4-phenylpiperidin-4-ylmethyl}-acetamide] had an inhibition at 1 µM of 96%.
For the molecule `O=C(c1ccc(C2CCN(c3nc4c(c(NC5CCOCC5)n3)[S+]([O-])CC4)CC2)cc1)N1CCOCC1` (stereo not drawn) [Example 227], testing at 1 µM gave an inhibition of 83%.
The molecule `CC(C)c1ccc(OC2CCN(c3nc4c(c(NC5CCOCC5)n3)[S+]([O-])CC4)CC2)cc1` (stereo not drawn) [Example 269] had an inhibition at 1 µM of 94%.
Molecule `Cc1nn(C)cc1C(C)NC(=O)c1ccc(C2CCN(c3nc4c(c(NC5CCOCC5)n3)[S+]([O-])CC4)CC2)cc1` (stereo not drawn) [Example 218] came in with an inhibition at 1 µM of 94%.
In turn, `[O-][S+]1CCc2nc(N3CCC(c4nc5ccncc5[nH]4)CC3)nc(NC3CCOCC3)c21` (stereo not drawn) [Example 213] returned an inhibition at 1 µM of 88%.
For `Cn1c(C2CCN(c3nc4c(c(NC5CCOCC5)n3)[S+]([O-])CC4)CC2)nc2ccccc21` (stereo not drawn) [Example 212], the inhibition at 1 µM came to 93%.
As to `NC1CC1Nc1nc(N2CCC(c3ccc(Cl)cc3)CC2)nc2c1[S+]([O-])CC2` (single isomer, unassigned) [Example 232, N-{2-[4-(4-Chlorophenyl)-Piperidin-1-Yl]-5-Oxo-6,7-Dihydro-5H-5λ^4-Thieno[3,2-d]Pyrimidin-4-Yl}-Cyclopropan-1,2-Diamine], 1 µM produced 84% inhibition.
As to `O=C(c1ccc(OC2CCN(c3nc4c(c(NC5CCOCC5)n3)[S+]([O-])CC4)CC2)cc1)N(C1CCOCC1)C1CC1` (stereo not drawn) [Example 238], the inhibition at 1 µM came out at 95%.
Still for that read-out and setting: under `[O-][S+]1CCc2nc(N3CCC(OCc4ccccc4)(c4ccc(Cl)cc4)CC3)nc(NC3(CO)CC3)c21` (stereo not drawn) [Example 320] stands 92%; under `COCC1(c2ccc(Cl)cc2)CCN(c2nc3c(c(N[C@@H](CO)C(C)C)n2)[S+]([O-])CC3)CC1` (stereo partly drawn) [Example 304], 89%.
On the same count and under the same terms, the result for `CS(=O)(=O)NCC1(c2ccccc2)CCN(c2nc3c(c(NC4CCOCC4)n2)[S+]([O-])CC3)CC1` (stereo not drawn) [Example 325] reads 87%; that for `CN1C[C@@H](Nc2nc(N3CCC(c4nc(-c5ccncc5)no4)CC3)nc3c2[S+]([O-])CC3)CCC1=O` (stereo partly drawn) [Example 188], 97%; that for `Cn1cc(C2CCN(c3nc4c(c(NC5CCOCC5)n3)[S+]([O-])CC4)CC2)c2ccccc21` (stereo not drawn) [Example 193], 96%.
`CN1C[C@@H](Nc2nc(N3CCC(c4cc(-c5ccco5)n[nH]4)CC3)nc3c2[S+]([O-])CC3)CCC1=O` (stereo partly drawn) [Example 190]: the inhibition at 1 µM came to 97%.
Same read-out and setting: under `[O-][S+]1CCc2nc(N3CCC(c4nnc(-c5ccccc5)o4)CC3)nc(NC3CCOCC3)c21` (stereo not drawn) [Example 317] stands 95%.
